Patent US12532889B2, “Herbicidal compositions comprising glufosinate” (BASF SE, priority 2023, dated 2026)
Where “and” joins values, the source holds several entries; their conditions need not be identical. Equal entries are not always repeated.

Key:
Assay in all cases: Post-emergence application in field trials (Example A)
Format in all cases: in vivo
AVEFA (Avena fatua) = details: Table 3.1; AVEFA growth stage 22-24, height 18-29 cm; A-1 12.5, B-2 500 g ai/ha; 28 DAT; water 100 l/ha
Procedure: (§1) In the examples below, using the method of S. R. Colby (1967) “Calculating synergistic and antagonistic responses of herbicide combinations”, Weeds 15, p. 22ff., the value E, which is expected if the activity of the individual active compounds is only additive, was calculated:
(§2) [formula] • where • X=percent activity using active herbicide A at an application rate a; • Y=percent activity using active herbicide B (e.g. glufosinate) at an application rate b; • E=expected activity (in %) by A+B at application rates a+b.
(§3) If the value found experimentally is higher than the value E calculated according to Colby, a synergistic effect is present.
(§4) On field test sites, natural weed infestation or seeded weeds were treated post-emergence of the weeds.
(§5) In the field trials, the weeds were treated as indicated below.
(§6) In the following experiments, the herbicidal activity for the individual herbicidal compositions (solo and mixture applications) was assessed at the indicated days after treatment (DAT). The assessments for the damage on undesired weeds caused by the composition was carried out using a scale from 0 to 100%, compared to the untreated control plants. Here, 0 means no damage and 100 means complete destruction of the plants.

[1] = test system: DIGSA (Digitaria sanguinalis); details: for % Herbicidal activity: B-2 400 g ai/ha, height 10-15 cm; for % herbicidal activity: Table 4.1, DIGSA height 2-8 cm, water 140 l/ha
Procedure: as §1, §2, §3, §4, §5, §6

[2] = test system: ECHCG (Echinocloa crus-galli); details: B-2 400 g ai/ha, growth stage 23-30, height 15-20 cm
Procedure: as §1, §2, §3, §4, §5, §6

[3] = test system: HORVW (Hordeum vulgare (winter barley)); details: B-2 400 g ai/ha, growth stage 23-29, height 20-25 cm
Procedure: as §1, §2, §3, §4, §5, §6

[4] = test system: LOLMU (Lolium multiflorum)
Procedure: as §1, §2, §3, §4, §5, §6

[5] = test system: POLCO (Polygonum convolvulus); details: Table 3.2, A-1 12.5, B-2 500 g ai/ha, 14 DAT, water 100 l/ha
Procedure: as §1, §2, §3, §4, §5, §6

ZEAMX (Zea mays) = test system: ZEAMX (Zea mays)
Procedure: as §1, §2, §3, §4, §5, §6

[6] = test system: CYPDI (Cyperus difformis); details: CYPDI height 25 cm
Procedure: as §1, §2, §3, §4, §5, §6
(§7) Post-emergence application of Herbicide A-1 (A-1) and glufosinate ammonium (B-2) in Field Trials:
(§8) Herbicide A-1 (50 g/l), glufosinate ammonium (200 g/l) and optional herbicide C were, together with addition of 0.5% v/v MSO (methylated seed oil) as adjuvant, formulated in water as distribution medium as indicated and sprayed with commercial flat fan nozzles.

[7] = test system: DIGIN = TRCIN (Digitaria insularis)
Procedure: as §1, §2, §3, §4, §5, §6, §7, §8

ELEIN (Eleusine indica) = test system: ELEIN (Eleusine indica)
Procedure: as §1, §2, §3, §4, §5, §6, §7, §8

EPHHI (Euphorbia hirta) = details: Table 1.2; EPHHI height 25 cm; B-2 solo 400 g ai/ha; 14 DAT; water volume 100 l/ha; 0.5% v/v MSO
Procedure: as §1, §2, §3, §4, §5, §6, §7, §8

[8] = test system: SPCHI (Spermacoce hispida); details: Table 1.2; SPCHI height 25 cm; B-2 solo 400 g ai/ha; 14 DAT; water volume 100 l/ha; 0.5% v/v MSO
Procedure: as §1, §2, §3, §4, §5, §6, §7, §8

[9] = 7 DAT, B-2 400 g ai/ha, growth stage 22-25, height 20-25 cm

Compound: CP(=O)(O)CCC(N)C(=O)O (stereo not drawn) [B-2, glufosinate-ammonium]
- % herbicidal activity (AVEFA (Avena fatua)): 68%
- % Herbicidal activity ([1]; 20 DAT, growth stage 21-22): 20%
- % Herbicidal activity ([1]; 21 DAT, growth stage 22): 75%
- % Herbicidal activity ([1]; 41 DAT, growth stage 22): 55%
- % herbicidal activity ([1]; A-1 12.5, B-2 655 g ai/ha, 21 DAT): 49%
- % herbicidal activity ([1]; A-1 25, B-2 655 g ai/ha, 21 DAT): 49%
- % herbicidal activity ([1]; A-1 50, B-2 655 g ai/ha, 21 DAT): 49%
- % Herbicidal activity ([2]; 7 DAT): 60%
- % herbicidal activity ([2]; 7 DAT): 40% and 60%
- % Herbicidal activity ([2]; 21 DAT): 60%
- % herbicidal activity ([2]; 21 DAT): 60%
- % Herbicidal activity ([2]; 28 DAT): 60%
- % Herbicidal activity ([3]; 7 DAT): 60%
- % Herbicidal activity ([3]; 21 DAT): 30%
- % herbicidal activity ([3]; 21 DAT): 40%
- % Herbicidal activity [4, 9]: 70%
- % herbicidal activity [4, 9]: 50%
- % herbicidal activity ([4]; 21 DAT, B-2 400 g ai/ha, growth stage 22-25, height 20-25 cm): 30%
- % Herbicidal activity ([4]; 28 DAT, B-2 400 g ai/ha, growth stage 22-25, height 20-25 cm): 40%
- % herbicidal activity ([4]; Table 1.28, LOLMU growth stage 11-23, height 5-10 cm, A-1 25, B-2 400 g ai/ha, 28 DAT, water 200 l/ha): 68%
- % herbicidal activity [5]: 28%
- % herbicidal activity (ZEAMX (Zea mays); 7 DAT, B-2 400 g ai/ha, growth stage 15-16, height 50-60 cm): 75%
- % Herbicidal activity (ZEAMX (Zea mays); 21 DAT, B-2 400 g ai/ha, growth stage 15-16, height 27-33 cm): 65%
- % herbicidal activity (ZEAMX (Zea mays); 21 DAT, B-2 400 g ai/ha, growth stage 15-16, height 50-60 cm): 75%
- % herbicidal activity (ZEAMX (Zea mays); 28 DAT, B-2 400 g ai/ha, growth stage 15-16, height 50-60 cm): 40%
- % herbicidal activity (ZEAMX (Zea mays); Table 1.12, ZEAMX volunteer corn, A-1 50, B-2 400 g ai/ha, 21 DAT, water 100 l/ha): 47%
- % herbicidal activity ([6]; Table 1.15, A-1 25, B-2 400 g ai/ha, 21 DAT, water 100 l/ha): 10%
- % herbicidal activity ([6]; Table 1.2, B-2 solo 400 g ai/ha, 14 DAT, water volume 100 l/ha, 0.5% v/v MSO): 20%
- % herbicidal activity ([7]; Table 1.13, DIGIN height 20-30 cm, A-1 50, B-2 400 g ai/ha, 21 DAT, water 100 l/ha): 20%
- % herbicidal activity ([7]; Table 1.17, DIGIN height 20-30 cm, A-1 50, B-2 400 g ai/ha, 21 DAT, water 200 l/ha): 30%
- % herbicidal activity ([7]; Table 1.19, DIGIN height 20-30 cm, A-1 50, B-2 400 g ai/ha, 21 DAT, water 200 l/ha): 30%
- % herbicidal activity ([7]; Table 1.20, DIGIN height 60-80 cm, A-1 50, B-2 400 g ai/ha, 21 DAT, water 200 l/ha): 57%
- % herbicidal activity ([7]; Table 1.22, DIGIN in tillering stage, height 5-15 cm, A-1 50, B-2 400 g ai/ha, 21 DAT, water 200 l/ha): 35%
- % herbicidal activity ([7]; Table 1.22, DIGIN in tillering stage, height 5-15 cm, A-1 50, B-2 600 g ai/ha, 21 DAT, water 200 l/ha): 70%
- % herbicidal activity ([7]; Table 1.23, DIGIN growth stage 16-18, height 15-25 cm, A-1 50, B-2 400 g ai/ha, 21 DAT, water 200 l/ha): 55%
- % herbicidal activity ([7]; Table 1.23, DIGIN growth stage 16-18, height 15-25 cm, A-1 50, B-2 600 g ai/ha, 21 DAT, water 200 l/ha): 65%
- % herbicidal activity ([7]; Table 1.24, DIGIN growth stage 67, height 100 cm, A-1 50, B-2 400 g ai/ha, 21 DAT, water 200 l/ha): 17%
- % herbicidal activity ([7]; Table 1.24, DIGIN growth stage 67, height 100 cm, A-1 50, B-2 600 g ai/ha, 21 DAT, water 200 l/ha): 37%
- % herbicidal activity ([7]; Table 1.25, DIGIN in tillering stage, height 8-20 cm, A-1 50, B-2 400 g ai/ha, 21 DAT, water 200 l/ha): 25%
- % herbicidal activity ([7]; Table 1.25, DIGIN in tillering stage, height 8-20 cm, A-1 50, B-2 600 g ai/ha, 21 DAT, water 200 l/ha): 43%
- % herbicidal activity ([7]; Table 1.26, DIGIN in tillering stage, height 50-70 cm, A-1 50, B-2 400 g ai/ha, 21 DAT, water 200 l/ha): 15%
- % herbicidal activity ([7]; Table 1.26, DIGIN in tillering stage, height 50-70 cm, A-1 50, B-2 600 g ai/ha, 21 DAT, water 200 l/ha): 15%
- % herbicidal activity ([7]; Table 1.3, DIGIN height 60-80 cm, A-1 25, B-2 400 g ai/ha, 14 DAT, water 200 l/ha): 68%
- % herbicidal activity ([7]; Table 1.3, DIGIN height 60-80 cm, A-1 50, B-2 400 g ai/ha, 14 DAT, water 200 l/ha): 68%
- % herbicidal activity ([7]; Table 1.5, DIGIN growth stage 16-18, height 15-25 cm, A-1 50, B-2 400 g ai/ha, 14 DAT, water 200 l/ha): 60%
- % herbicidal activity ([7]; Table 1.5, DIGIN growth stage 16-18, height 15-25 cm, A-1 50, B-2 600 g ai/ha, 14 DAT, water 200 l/ha): 70%
- % herbicidal activity ([7]; Table 1.7, DIGIN height 50-70 cm, tillering stage, B-2 solo 600 g ai/ha, 14 DAT, water volume 200 l/ha, 0.5% v/v MSO): 17%
- % herbicidal activity (ELEIN (Eleusine indica); Table 1.10, ELEIN growth stage 23-25, height 3-5 cm, A-1 25, B-2 400 g ai/ha, 20 DAT, water 200 l/ha): 35%
- % herbicidal activity (ELEIN (Eleusine indica); Table 1.1, ELEIN growth stage 24, B-2 solo 400 g ai/ha, 14 DAT, water volume 100 l/ha, 0.5% v/v MSO): 12%
- % herbicidal activity (ELEIN (Eleusine indica); Table 1.14, ELEIN growth stage 24, A-1 25, B-2 400 g ai/ha, 21 DAT, water 100 l/ha): 0%
- % herbicidal activity (ELEIN (Eleusine indica); Table 1.15, ELEIN height 25 cm, A-1 25, B-2 400 g ai/ha, 21 DAT, water 100 l/ha): 10%
- % herbicidal activity (ELEIN (Eleusine indica); Table 1.15, ELEIN height 25 cm, A-1 50, B-2 400 g ai/ha, 21 DAT, water 100 l/ha): 10%
- % herbicidal activity (ELEIN (Eleusine indica); Table 1.18, ELEIN growth stage 24, A-1 25, B-2 400 g ai/ha, 21 DAT, water 200 l/ha): 0%
- % herbicidal activity (ELEIN (Eleusine indica); Table 1.18, ELEIN growth stage 24, A-1 50, B-2 400 g ai/ha, 21 DAT, water 200 l/ha): 0%
- % herbicidal activity (ELEIN (Eleusine indica); Table 1.21, ELEIN growth stage 24, A-1 25, B-2 400 g ai/ha, 21 DAT, water 200 l/ha): 0%
- % herbicidal activity (ELEIN (Eleusine indica); Table 1.21, ELEIN growth stage 24, A-1 50, B-2 400 g ai/ha, 21 DAT, water 200 l/ha): 0%
- % herbicidal activity (ELEIN (Eleusine indica); Table 1.4, ELEIN growth stage 24, A-1 50, B-2 400 g ai/ha, 14 DAT, water 200 l/ha): 18%
- % herbicidal activity (ELEIN (Eleusine indica); Table 1.9, ELEIN growth stage 23-25, height 3-5 cm, A-1 25, B-2 400 g ai/ha, 20 DAT, water 100 l/ha): 20%
- % herbicidal activity (EPHHI (Euphorbia hirta)): 20%
- % herbicidal activity [8]: 20%
